This assay concerns the target T1, CHIP28 (Homo sapiens, UniProt P29972).
T1 construct: was comprised of AQP1 (the 28-kDa protein itself and the 35-60-kDa glycosylated protein); from tissue; host or cells: human erythrocytes (blood-bank units; small-scale purifications from freshly drawn whole blood)
T1 sequence (P29972 2-269 limits assumed): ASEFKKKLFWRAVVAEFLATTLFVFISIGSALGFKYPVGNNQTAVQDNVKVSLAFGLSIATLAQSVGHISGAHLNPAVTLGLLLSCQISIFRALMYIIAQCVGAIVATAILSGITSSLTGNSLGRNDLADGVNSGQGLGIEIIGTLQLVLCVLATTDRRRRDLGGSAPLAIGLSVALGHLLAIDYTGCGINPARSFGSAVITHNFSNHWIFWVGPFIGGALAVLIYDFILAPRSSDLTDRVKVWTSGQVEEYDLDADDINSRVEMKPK
Kind of assay: Stopped-flow water flux (Pf) in CHIP28 proteoliposomes, effect of mercurial reagents. The format is biochemical. As to the method: Purified AQP1 was stored overnight at 0° C. or frozen for several days at -80° C. prior to reconstitution. Reconstitution into proteoliposomes was carried out in a final volume of 1 ml containing 60-90 μg of purified AQP 1 protein in chromatography buffer, 9 mg of bath-sonicated E. coli phospholipid, 1.25% (w/v) octyl glucoside, and 50 mM Tris-HCl (pH 7.5). The mixture was briefly blended on a vortex mixer and incubated for 20 minutes on ice. Proteoliposomes (or liposomes prepared without protein) were formed at room temperature by rapidly injecting the mixture into 25 ml of buffer A [50 mM MOPS, pH 7.5, 150 mM N-methyl-D-glucamine (NMDG) chloride also containing 10-15 mM carboxyfluorescein, 1 mM dithiothreitol, and 0.5 mM PMSF]. For the measurement of proton permeability, proteoliposomes and liposomes were loaded with buffer B (5 mM MOPS, pH 7.5, 150 mM KCl, 0.5 mM carboxyfluorescein, 1 mM dithiothreitol, and 0.5 mM PMSF). The suspension was incubated for 20 minutes at room temperature. Proteoliposomes or liposomes were collected by centrifugation for 1 hour at 123000×g in a Beckman Type 42.1 rotor at 4° C. The pellet was resuspended in 8 ml of buffer A or B and then centrifuged for 1 hour at 152000×g in a Beckman Type 50 Ti rotor. Proteoliposomes or liposomes were resuspended in 300 μl of buffer A or B and stored at 4° C. for 16-24 hours. Typically 50% (54±6%, n=5) of the AQP1 protein and 70% of the phospholipid were recovered in proteoliposomes. The lipid to protein ratio was in the range of 120:1 to 219:1. These proteoliposomes have internal volumes of 1 μl/mg of phospholipid (Ambudkar and Maloney, 1986, J. Biol. Chem. 261:10079-10086). Protein and phospholipid were measured as described by Ambudkar & Maloney (J. Biol. Chem., 1986, 261:10079-10086).
Permeability measurements. Membrane permeability measurements (Pf) were measured by exposing AQP1 proteoliposomes or control liposomes to an osmotic gradient by rapid mixing with an equal volume of another solution containing buffer A plus sufficient sucrose to increase osmolality in the mixed solutions to a value 120% of that in the original solution. This was performed with a stopped-flow fluorometer (SF.17MV, Applied Photophysics, Leatherhead, U.K.) with a measured dead time of 0.7 ms. The excitation wavelength was set at 490±1.5 nm using a 150-W mercury-xenon arc lamp and monochromator (.function.3.4 grating monochromator, both from Applied Photophysics); the emission wavelength was >515 nm using a cut-on filter (Oriel Corp., Stratford, Conn.). Extravesicular carboxyfluorescein fluorescence was completely quenched using anti-fluorescein antibody (Harris et al., 1990, Am. J. Physiol. 259:F366-F371).
Within the range of osmolalities used in these experiments, the vesicles acted as perfect osmometers, and relative volume (absolute volume divided by initial volume) was linearly related to relative fluorescence (absolute fluorescence divided by initial fluorescence). The data obtained from 8 to 16 determinations was averaged and fit to single-exponential curves using 5 software provided by Applied Photophysics (Zeidel et al., 1992, Biochemistry 31:589-596). The fitting parameters were then used to determine Pf by first applying the linear conversion from relative fluorescence to relative volume and then iteratively solving the water permeability equation using MathCAD software (MathSoft, Cambridge, Mass.):
dV(t)/dt=(Pf)(SAV)(MVW)[(Cin /V(t))-Cout ] (1)
where V(t) is relative intravesicular volume as a function of time, Pf is osmotic water permeability in centimeters per second, SAV is the vesicle surface area to volume ratio, MVW is the molar volume of water (18 cm^3 /mol), and Cin and Cout are the initial concentrations of total solute inside and outside the vesicle, respectively (Zeidel et al., 1992, Biochemistry 31:589-596).
Effect of mercural reagents.

On to `[Cl][Hg][Cl]` [HgCl2], for which the “time to complete inhibition of Pf” value (1 mM, 37° C.) was no more than 5 min. Moreover, the “Pf in CHIP28 proteoliposomes after mercurial” value (1 mM, 37° C. (FIG. 12: pCMBS 25 minutes, HgCl2 3 minutes)) was 0.007±0.003 cm/s.

Take `OCCS` [β-mercaptoethanol]: the “reversal of inhibition by both mercurial reagents” value (β-mercaptoethanol 5 mM after pCMBS or HgCl2) is “completely reversed”.

The values are drawn from patent publication US5858702A, “Isolation, cloning and expression of transmembrane water channel Aquaporin 5 (AQP5)” (The Johns Hopkins University, priority 1995, dated 1999).
